# Laboratory results reported in ChEMBL document CHEMBL3507680, “University of Dundee, Gates Library screen for HepG2 cell viability”.
# Experiment: Human HepG2 cell viability assay in 384 well format
# Format: toxicity, cell-based
# Set-up: dose 125 nL, time 70.5 hour; concentration not given beside the values
# Settings: HepG2 cells, read-out: Inhibition
row,SMILES,cytotoxicity at 70.5 h
1,Fc1ccc(C2CCCN2Cc2nc(Cc3ccccc3F)no2)cc1 (stereo not drawn),0.991%
2,O=C(c1ccncc1)N1CCN2C[C@H](Oc3cccnc3)C[C@H]2C1,2.63%
3,CC(C)NC(=O)c1ccc2nnc(C3CCN(S(C)(=O)=O)C3)n2c1 (stereo not drawn),-0.738%
4,Cc1occc1C(=O)N1CCN2C[C@H](Oc3cccnc3)C[C@H]2C1,0.855%
5,Cn1nc(CN2CCCCC2)c2c1CN(C(=O)c1ccoc1)C2,16.5%
6,O=C1COC2(CCN(c3ccccn3)CC2)CN1Cc1ccccn1,17.6%
7,Cc1ccc(C(=O)N2C[C@H](OCC3CCOCC3)[C@H]3OCCC[C@H]32)o1,0.644%
8,COC[C@H]1CC[C@H]2[C@H](CCN2S(=O)(=O)c2ccccc2)O1,5.05%
9,O=C(c1ccnnc1)N1C[C@H](OCC2CCOCC2)[C@H]2OCCC[C@H]21,0.563%
10,CCOC[C@@H]1CC[C@H]2[C@H](CCN2S(=O)(=O)c2ccc(F)cc2)O1,-6.92%
11,Cc1ccc(CN2CCCn3c(nc(Cn4ccnc4)cc3=O)C2)s1,8.11%
12,Cc1ccc(C(=O)N2CCO[C@H]3[C@H](OCC4CCOCC4)CC[C@@H]32)o1,11.2%
13,Cc1ccoc1C(=O)N1C[C@@H](OCC2CCOCC2)[C@H]2OCCC[C@H]21,8.35%
14,Cc1ccc(N2CCC3(CCN(C(=O)c4ccsc4)CC3)CC2)nn1,-7.09%
15,Cc1ccc(C(=O)N2C[C@@H](OCc3cccnc3)[C@H]3OCCC[C@H]32)o1,3.45%
16,COCC1CN(Cc2ccncc2)Cc2nn(C)cc21 (stereo not drawn),30.7%
17,O=S(=O)(c1ccccc1)N1CCC[C@]2(C[C@@H](OCC3CC3)CO2)C1,9.43%
18,Cn1cc(CN2CCC3(CCCCN3S(C)(=O)=O)CC2)cn1,-11.7%
19,Cc1nn(C)c2nc(N3CCC(C(O)c4nccn4C)CC3)sc12 (stereo not drawn),-11.6%
20,O=C(O)C(c1ccc2c(c1)OCO2)N1CCC(O)(c2cccnc2)CC1 (stereo not drawn),0.616%
21,O=C(c1cccc(C2CCNC2)c1)N1CCC(c2ncc[nH]2)CC1 (stereo not drawn),-17%
22,Cc1cc(C)c(-n2cc(CCO)cn2)cc1C,22.1%

row,SMILES,cytotoxicity at 70.5 h
1,CCN1Cc2nc(OC)c(CNC(=O)C3CCCN(C)C3)cc2C1=O (stereo not drawn),-5.45%
2,CSCCN1CCN(c2nc(N)ncc2C)CC1,21.4%
3,CN(C)Cc1ccccc1CN(C)c1ncnc2[nH]ccc12,-9.22%
4,NC(=O)Cn1ccnc1C1CCCN(Cc2nc3ccccc3s2)C1 (stereo not drawn),-7.02%
5,CCC(=O)Nc1ccc(OCC(=O)N(C)C(C)c2ccon2)cc1 (stereo not drawn),-18.6%
6,CCn1ccnc1C1CCN(C(=O)Nc2ccc(OC)cc2)CC1,29.5%
7,Cc1nc(NCc2coc(-c3ccccc3)n2)cc(C2CCNCC2)n1,-2.73%
8,CCN1CC2(CCN(CCOc3ccc(F)cc3)CC2)CC1=O,12.8%
9,COCCN(Cc1cnn(C)c1)C(=O)C1CCCN(C2CCOCC2)C1 (stereo not drawn),-12.6%
10,CCc1ncc(C(=O)N2CCCN(C3CCCCC3)CC2)cn1,10.7%
11,CC(C)c1noc(C2CCCN2S(=O)(=O)Cc2ccc(F)cc2)n1 (stereo not drawn),0.0647%
12,CN(Cc1ccn[nH]1)C(=O)CCC(=O)NC1CCCC1,-9.97%
13,Cc1nc(C2CCNCC2)cc(N2CCOc3ccccc3C2)n1,-4.26%
14,CCCn1cc(C(=O)N2CCCC(c3nccn3CCOC)C2)c(C)n1 (stereo not drawn),1.39%
15,COCCN(C)C[C@@H]1CN(C(=O)c2ccc(SC)cc2)C[C@@H]1CO,12.6%
16,CC(C)N1CCC(CC(=O)NC(C(=O)O)c2cc(F)ccc2F)CC1 (stereo not drawn),-16.6%
17,COc1ccccc1OC1CN(C(=O)CN(C)Cc2ccncc2)C1,-14.2%
18,CSCc1noc(-c2nc3c([nH]2)CCCNC3=O)n1,-4.67%
19,CN1[C@H]2CC[C@@H]1CN(C(=O)c1nnc3n1CCCC3)CC2,12.6%
20,CCOC(=O)c1coc(N2CCN(Cc3cc(C)cc(C)c3)C(=O)C2)n1,-5.18%
21,CN(Cc1cc(-c2cccnc2)no1)C(=O)[C@@H]1CSCN1C,-8.97%
22,O=C(c1cccc(Cl)c1)C1CCCN(c2nnc(C3CCC3)o2)C1 (stereo not drawn),5.93%

row,SMILES,cytotoxicity at 70.5 h
1,Cc1csc(CN(C)CCOc2ccccc2)n1,20.8%
2,Cc1ccccc1CN(CCN(C)C)Cc1ncc[nH]1,-7.18%
3,Cc1ncsc1CCC(=O)NCc1cc2n(n1)CCNC2,-8.17%
4,CC(C)Oc1cc(N2CCC3(CC2)[C@H](O)C[C@@H]3O)nc(N)n1,-1.26%
5,CN1CCC(c2nnc(CN3CCCCC3)n2C)CC1,-9.09%
6,Cc1nc(C)n(CC(C)C(=O)N2CCC(N3CCC(O)CC3)CC2)n1 (stereo not drawn),-3.14%
7,CC(=O)c1cc(CN2C[C@@H](NS(=O)(=O)N(C)C)[C@H](C(C)C)C2)cs1,7.82%
8,CCc1cc(NCC(O)CN2CCCCC2)ncn1 (stereo not drawn),-4.61%
9,Nc1nc(CNc2nccc(CCC(F)(F)F)n2)cs1,-7.96%
10,N[C@@H]1CCN(Cc2ccc(-c3nc(-c4cccnc4)cc(=O)[nH]3)cc2)C1,-10.8%
11,O=C(c1cnn2ccccc12)N1CCCC(OCc2ccccn2)C1 (stereo not drawn),-6.94%
12,Cc1cc2nc(C(C)C)cc(N(C)CC3CCCN3C)n2n1 (stereo not drawn),-10.7%
13,CNc1ccnc(N2C[C@@H](C)[C@](O)(C3CC3)C2)n1,-3.1%
14,Cn1cnnc1CN1CCC2(CCCN(C3CCCC3)C2=O)C1 (stereo not drawn),1.29%
15,CCN(C)C(=O)[C@H]1C[C@@](CC(C)C)(C(=O)OC)N(C)[C@H]1c1cccnc1,-3.05%
16,COCCC1(CO)CCCN(Cc2ccc(C(F)(F)F)nc2)C1 (stereo not drawn),-1.12%
17,CSC(C)CCN1CCCn2nc(CNC(=O)C3CCC3)cc2C1 (stereo not drawn),0.861%
18,CC(c1nccs1)n1cc(-c2cc(CN3CCCCC3)cs2)nn1 (stereo not drawn),-4.83%
19,O=C(CCN1CCCO1)NC1CCCN(CC2CCCCC2)C1 (stereo not drawn),-2.41%
20,O=C(O)c1ccccc1C1CCN(Cc2ccc(-c3cc[nH]n3)o2)C1 (stereo not drawn),-2.33%
21,Cc1cc(C[C@@H]2COC[C@@H]2NC(=O)CNC(=O)N(C)C)on1,9.05%
22,COc1ccc(C(=O)C2CCCN(c3cc(N)ncn3)C2)c(C)c1 (stereo not drawn),-10.4%

row,SMILES,cytotoxicity at 70.5 h
1,CSCCC(O)C(=O)N1CCN(Cc2cccc(Cl)c2)CC1 (stereo not drawn),-12.9%
2,CN(Cc1cc(-c2ccccc2)no1)C(=O)CNS(C)(=O)=O,23.3%
3,OC1(CNCCCN2CCCc3ccccc32)CNCCOC1 (stereo not drawn),-13%
4,CN(C)CC(=O)NC1CC(=O)N(CCc2ccccc2)C1 (stereo not drawn),-4.7%
5,COCCn1cncc1CN1CCCC(C(=O)Cc2ccccc2)C1 (stereo not drawn),0.198%
6,CC(C)(C)c1nc(CN(Cc2cccnc2)C2CN3CCC2CC3)no1 (stereo not drawn),-1.01%
7,COCCN1C[C@H]2CC[C@@H]1CN(Cc1ccc3ccccc3n1)C2,-5.95%
8,CN(Cc1ccccc1)c1cnn(CC2COCCO2)c(=O)c1 (stereo not drawn),-2.99%
9,O=C(O)C(c1ccc2c(c1)OCCO2)N1CCSCC1 (stereo not drawn),-3.24%
10,CNc1nc(C)c(C(=O)N2CCCCC2CCc2ccc(O)cc2)s1 (stereo not drawn),-8.49%
11,CC(C)Oc1ccc2c(NC(=O)CNC(N)=O)nn(CC(F)(F)F)c2c1,3.1%
12,COc1ccccc1OC1(C(=O)O)CCN(c2ccccn2)CC1,1.96%
13,Cc1cccc2sc(NC(=O)CN3CCCC4(CC3)CNC(=O)O4)nc12 (stereo not drawn),-7.84%
14,CCn1c(C2CCCNC2)nn(CCn2cncn2)c1=O (stereo not drawn),-8.3%
15,CCN(C)C[C@@H]1CN(Cc2cccc(Cl)c2)C[C@@H]1CO,-11.5%
16,CC(C)c1nccc(C2(c3ccccc3Cl)CCNCC2)n1,10.5%
17,NC(=O)N1CCC2(CCN(Cc3ccccn3)C2=O)C1 (stereo not drawn),-0.213%
18,Cc1ccc(C(=O)N2CCc3c(CN4CCCC4)nn(C)c3C2)cc1C,-2.24%
19,c1coc(CN2CCCn3c(nnc3Cn3cccn3)C2)c1,3.11%
20,Cc1ccc(C(=O)N2Cc3c(CN4CCCCC4)nn(C)c3C2)cc1F,36.2%
21,Cc1ccc(C(=O)N2C[C@@H](OCc3cccnc3)[C@H]3OCCC[C@@H]32)o1,10.6%
22,c1cnc(N2CCC3(CCN(CC4CCOC4)CC3)C2)nc1 (stereo not drawn),-1.96%

row,SMILES,cytotoxicity at 70.5 h
1,O=C(CC1CC2(CCN(CC3CC3)CC2)c2ccccc21)NC1CCC1 (stereo not drawn),-2.68%
2,O=C(C1=CCCC1)N1CCC2(CC1)CC(Oc1cccnc1)CO2 (stereo not drawn),-0.424%
3,Cc1oncc1C(=O)NCc1cc(=O)n2c(n1)CN(CC(C)C)CCC2,22.7%
4,O=C(c1cnccn1)N1CCCC2(CCN(c3ccccn3)C2)C1 (stereo not drawn),19.3%
5,O=C(c1cc[nH]n1)N1CCC2(CC1)CC(Oc1cccnc1)CO2 (stereo not drawn),8.68%
6,CCN1CCCn2c(nc(CNC(=O)c3cnoc3C)cc2=O)C1,5.12%
7,Cc1ccc(N2CCC3(CCN(C(=O)N(C)C)CC3)CC2)nn1,11.4%
8,Cc1noc(C)c1CN1CCO[C@H]2CN(C(=O)N3CCCC3)C[C@H]21,0.539%
9,c1cnc(N2CCC3(CCCN(CC4CC4)C3)CC2)nc1,-6.6%
10,CCS(=O)(=O)N1CC[C@H]2CO[C@H](CN(C)C)[C@H]2C1,9.44%
11,O=C(NCc1ccco1)[C@@H]1CCO[C@@H]2CCN(c3ncccn3)C[C@@H]21,9.24%
12,Cn1cc(CN2CCCC3(CCCCN3S(C)(=O)=O)C2)cn1 (stereo not drawn),-9.02%
13,O=C(NCc1ccco1)[C@@H]1CCO[C@@H]2CCN(c3ncccn3)C[C@H]21,-3.72%
14,CN1CC(=O)N(c2ccsc2)CC12CCN(C(=O)Nc1ccccc1)C2 (stereo not drawn),-4.43%
15,c1cnn(Cc2nnc3n2CCCN(Cc2ccsc2)C3)c1,4.58%
16,Cc1ccc(O[C@@H]2C[C@H]3CN(C(=O)c4cccnc4)CCN3C2)cc1,9.15%
17,O=C(CCc1cccnc1)N1CCC2(CCN(CC3CCCC3)C2)C1 (stereo not drawn),23.3%
18,Cc1cc(CN2CCO[C@H]3[C@H](OCc4csc(C)n4)CC[C@@H]32)no1,2.95%
19,CN1CC(=O)N(c2cccc(F)c2)CC12CCN(CC1CC1)C2 (stereo not drawn),-3.68%
20,CN1CC(=O)N(c2ccccc2)CC12CCN(CCO)C2 (stereo not drawn),6.4%
